{"source": "paper PMC10791089", "about": "“Identification and evaluation of antiviral activity of novel compounds targeting SARS-CoV-2 virus by enzymatic and antiviral assays, and computational analysis” (Journal of Enzyme Inhibition and Medicinal Chemistry, 2024)", "key": {"[1]": {"target": "SARS-CoV-2 M^pro (Severe acute respiratory syndrome coronavirus 2, UniProt P0DTD1)", "assay": "biochemical"}, "[2]": {"target": "T1, SARS-CoV-2 PL^pro (Severe acute respiratory syndrome coronavirus 2, UniProt P0DTD1)", "assay": "biochemical", "type": "biochemical"}, "[3]": {"target": "T1, SARS-CoV-2 PL^pro", "assay": "biochemical"}, "[4]": {"test_system": "SARS-CoV-2 strain Slovakia/SK-BMC5/2020", "assay": "microbe, parasite or virus in culture", "type": "cell-based"}, "[5]": {"test_system": "VERO-E6, Caco-2, PK-15, and A549 cells", "assay": "Cell viability MTT assay, averaged over screened cell lines", "details": "concentration causing >40% reduction in number of viable cells, 72 h, 0.5-30 µM, n/o = no cytotoxic effect observed within the concentration range"}, "[6]": {"test_system": "VERO-E6 cells", "assay": "Cell viability MTT assay in VERO-E6 cells", "type": "cell-based, African Green Monkey", "details": "VERO-E6 cell line, 72 h"}, "[7]": {"test_system": "PL^pro", "details": "read-out: IC50 deubiquitinase activity; drug repurposing study; cited from earlier work"}, "[8]": {"test_system": "severe COVID-19 and hospitalisation", "set-up": "method as in PMID 34726479", "details": "treatment started during the first days after appearance of symptoms; cited from earlier work"}, "[9]": {"details": "protease activity, 4 h at room temperature, 1 mM DTT, read-out: IC50 Enzyme assay PA M^pro"}, "[10]": {"details": "protease activity, 1 h at 37 °C, 1 mM DTT, read-out: IC50 Enzyme assay PA PL^pro"}, "[11]": {"details": "deubiquitinase activity, 1 h at 37 °C, 1 mM DTT, read-out: IC50 Enzyme assay DUA PL^pro"}, "[12]": {"details": "Severe acute respiratory syndrome coronavirus 2, Vero C1008, 72 h, read-out: EC50 Plaque reduction assay"}, "[13]": {"details": "Severe acute respiratory syndrome coronavirus 2, Vero C1008, VERO-E6 cells, MOI 1.0, 72 h, 0.1-30 µM, n/o = no antiviral effect observed within the concentration range, read-out: EC50 Plaque reduction assay"}, "[14]": {"details": "read-out: IC50 Enzyme assay PA PL^pro, protease activity, 1 h at 37 °C, 1 mM DTT"}, "[15]": {"details": "Severe acute respiratory syndrome coronavirus 2, Vero C1008, read-out: EC50 from the sigmoidal model (Figure 3 B1-B5)"}, "[16]": {"details": "VERO-E6 cells, MOI 1.0, 72 h, 0.1-30 µM, n/o = no antiviral effect observed within the concentration range"}}, "note": "pEC50, pIC50: −log10 of the molar value. Several values for one entry are separate records, joined by “and”; a condition that tells them apart may be missing. Equal values may be shown once. Read-outs that look alike come from different tables or passages of the source."}
{"smiles": "N#CSc1cc(SC#N)c(N)nc1N", "note": "[Compound C4, PR-619, reference compound]", "values": [{"measurement": "pIC50", "setting": "[1]; [9]", "value": 6.15}, {"measurement": "pIC50", "setting": "[2]; [10]", "value": 7.00}, {"measurement": "pIC50", "setting": "[3]; [11]", "value": 6.70}, {"measurement": "pEC50", "setting": "[4]; [12]", "value": 5.05}, {"measurement": "CTE Cell viability MTT assay", "setting": "[5]", "value": ">10.0", "unit": "µM"}, {"measurement": "CTE Cell viability MTT assay", "setting": "[5]; listed as PR-619", "value": "5 to 10", "unit": "µM"}]}
{"smiles": "CCC(CC)COC(=O)[C@H](C)N[P@](=O)(OC[C@H]1O[C@@](C#N)(c2ccc3c(N)ncnn23)[C@H](O)[C@@H]1O)Oc1ccccc1", "note": "[Compound C8, Remdesivir, reference compound]", "values": [{"measurement": "pEC50", "setting": "[4]; [13]", "value": 5.74}, {"measurement": "CTE Cell viability MTT assay", "setting": "[5]", "value": "n/o"}]}
{"smiles": "Cc1ccc(N)cc1C(=O)N[C@H](C)c1cccc2ccccc12", "note": "[Compound C9, GRL0617, reference compound]", "values": [{"measurement": "pEC50", "setting": "[4]; VERO-E6 cells, MOI 1.0, 72 h, 0.1-30 µM, n/o = no antiviral effect observed within the concentration range, read-out: EC50 Plaque reduction assay", "value": 5.60}]}
{"smiles": "CC(C)C[C@@H](NC(=O)OCc1ccccc1)C(=O)N[C@@H](CC1CCNC1=O)C(O)S(=O)(=O)O", "note": "(stereo partly drawn) [Compound C10, GC376, reference compound]", "values": [{"measurement": "pEC50", "setting": "[4]; [13]", "value": 6.00}]}
{"smiles": "O=C1/C(=C/c2ccc([N+](=O)[O-])cc2)CC(O)C/C1=C\\c1ccc([N+](=O)[O-])cc1", "note": "(stereo not drawn) [Compound T97]", "values": [{"measurement": "pIC50", "setting": "[1]", "value": "< 4.00"}, {"measurement": "pIC50", "setting": "[2]", "value": "< 4.00"}, {"measurement": "pIC50", "setting": "[3]", "value": "< 4.00"}, {"measurement": "CTE in VERO-E6 cells", "setting": "[6]", "value": "approximately 5 µM"}, {"measurement": "CTE Cell viability MTT assay", "setting": "[5]", "value": ">5.0", "unit": "µM"}]}
{"smiles": "NCCCNC(=O)OC1C/C(=C\\c2ccc([N+](=O)[O-])cc2)C(=O)/C(=C/c2ccc([N+](=O)[O-])cc2)C1", "note": "(stereo not drawn) [Compound T98]", "values": [{"measurement": "pIC50", "setting": "[1]", "value": "< 4.00"}, {"measurement": "pIC50", "setting": "[2]; [14]", "value": "> 4.00"}, {"measurement": "pEC50", "setting": "[4]; [12]", "value": 5.17}, {"measurement": "pEC50", "setting": "[4]; [15]", "value": 5.17}, {"measurement": "CTE in VERO-E6 cells", "setting": "[6]", "value": "> 15 µM and 10 to 15 µM"}, {"measurement": "CTE Cell viability MTT assay", "setting": "[5]", "value": ">15.0 to 30.0", "unit": "µM"}]}
{"smiles": "CC(C)(C)OC(=O)NCCCC[C@H](NC(=O)OC1C/C(=C\\c2ccc([N+](=O)[O-])cc2)C(=O)/C(=C/c2ccc([N+](=O)[O-])cc2)C1)C(=O)O", "note": "(stereo partly drawn) [Compound T105]", "values": [{"measurement": "pIC50", "setting": "[1]", "value": "< 4.00"}, {"measurement": "pIC50", "setting": "[2]", "value": "< 4.00"}, {"measurement": "pIC50", "setting": "[3]", "value": "< 4.00"}, {"measurement": "pEC50", "setting": "[4]; [12]", "value": "< 4.52"}, {"measurement": "EC50 Plaque reduction assay", "setting": "[4]; [16]", "value": "no antiviral effect was observed and n/o"}, {"measurement": "CTE Cell viability MTT assay", "setting": "[5]", "value": "no observed cytotoxic effect and n/o"}]}
{"smiles": "CC(C)C[C@H](NC(=O)OC1C/C(=C\\c2ccc([N+](=O)[O-])cc2)C(=O)/C(=C/c2ccc([N+](=O)[O-])cc2)C1)C(N)=O", "note": "(stereo partly drawn) [Compound T120]", "values": [{"measurement": "pIC50", "setting": "[1]", "value": "< 4.00"}, {"measurement": "pIC50", "setting": "[2]; [14]", "value": "> 4.00"}, {"measurement": "pEC50", "setting": "[4]; [12]", "value": 5.47}, {"measurement": "pEC50", "setting": "[4]; [15]", "value": 5.47}, {"measurement": "CTE in VERO-E6 cells", "setting": "[6]", "value": "> 10 µM and 10 to 15 µM"}, {"measurement": "CTE Cell viability MTT assay", "setting": "[5]", "value": ">10.0", "unit": "µM"}]}
{"smiles": "NC(=O)[C@H](Cc1ccccc1)NC(=O)OC1C/C(=C\\c2ccc([N+](=O)[O-])cc2)C(=O)/C(=C/c2ccc([N+](=O)[O-])cc2)C1", "note": "(stereo partly drawn) [Compound T121]", "values": [{"measurement": "pIC50", "setting": "[1]", "value": "< 4.00"}, {"measurement": "pIC50", "setting": "[2]", "value": "< 4.00"}, {"measurement": "pIC50", "setting": "[3]", "value": "< 4.00"}, {"measurement": "pEC50", "setting": "[4]; [12]", "value": 5.08}, {"measurement": "pEC50", "setting": "[4]; [15]", "value": 5.08}, {"measurement": "CTE in VERO-E6 cells", "setting": "[6]", "value": "10 to 15", "unit": "µM"}, {"measurement": "CTE Cell viability MTT assay", "setting": "[5]", "value": ">10.0 to 15.0", "unit": "µM"}]}
{"smiles": "NCCCNC(=O)OC1C/C(=C\\c2ccc([N+](=O)[O-])cc2)C(O)/C(=C/c2ccc([N+](=O)[O-])cc2)C1", "note": "(stereo not drawn) [Compound T122]", "values": [{"measurement": "pIC50", "setting": "[1]", "value": "< 4.00"}, {"measurement": "pIC50", "setting": "[2]; [14]", "value": "> 4.00"}, {"measurement": "pEC50", "setting": "[4]; [12]", "value": 4.77}, {"measurement": "pEC50", "setting": "[4]; [15]", "value": 4.77}, {"measurement": "CTE in VERO-E6 cells", "setting": "[6]", "value": "> 30", "unit": "µM"}, {"measurement": "CTE Cell viability MTT assay", "setting": "[5]", "value": ">30.0", "unit": "µM"}]}
{"smiles": "COc1cc(/C=C2\\CC(OC(=O)NCCCN)C/C(=C\\c3ccc(O)c(OC)c3)C2=O)ccc1O", "note": "(stereo not drawn) [Compound T123]", "values": [{"measurement": "pIC50", "setting": "[1]; [9]", "value": "< 4.00"}, {"measurement": "pIC50", "setting": "[2]; [10]", "value": 4.22}, {"measurement": "pIC50", "setting": "[3]; [11]", "value": 4.12}, {"measurement": "EC50 Plaque reduction assay", "setting": "[4]; [16]", "value": "no antiviral effect was observed and did not show any inhibitory efficiency and n/o"}]}
{"smiles": "CC(C)C[C@H](N)C(=O)NCCCNC(=O)OC1C/C(=C\\c2ccc([N+](=O)[O-])cc2)C(=O)/C(=C/c2ccc([N+](=O)[O-])cc2)C1", "note": "(stereo partly drawn) [Compound T124]", "values": [{"measurement": "pIC50", "setting": "[1]", "value": "< 4.00"}, {"measurement": "pIC50", "setting": "[2]", "value": "< 4.00"}, {"measurement": "pIC50", "setting": "[3]", "value": "< 4.00"}, {"measurement": "pEC50", "setting": "[4]; [12]", "value": 4.80}, {"measurement": "pEC50", "setting": "[4]; [15]", "value": 4.80}, {"measurement": "CTE in VERO-E6 cells", "setting": "[6]", "value": "> 30", "unit": "µM"}, {"measurement": "CTE Cell viability MTT assay", "setting": "[5]", "value": ">30.0", "unit": "µM"}]}
{"smiles": "O=[N+]([O-])c1ccc(/C=C2\\CC(O)C/C(=C\\c3ccc([N+](=O)[O-])cc3)C2O)cc1", "note": "(stereo not drawn) [Compound T125]", "values": [{"measurement": "pIC50", "setting": "[1]", "value": "< 4.00"}, {"measurement": "pIC50", "setting": "[2]; [14]", "value": "> 4.00"}, {"measurement": "EC50 Plaque reduction assay", "setting": "[4]; [16]", "value": "no antiviral effect was observed and did not show any inhibitory efficiency and no antiviral activity and n/o"}, {"measurement": "CTE Cell viability MTT assay", "setting": "[5]", "value": "no observed cytotoxic effect and n/o"}]}
{"smiles": "Cc1ccc(/C=C2\\CNC/C(=C\\c3ccc(C)cc3)C2=O)cc1", "note": "[NSC63283]", "values": [{"measurement": "pIC50", "setting": "[7]", "value": "< 4.00"}]}
{"smiles": "O=C1/C(=C/c2ccc([N+](=O)[O-])cc2)CNC/C1=C\\c1ccc([N+](=O)[O-])cc1", "note": "[RA-9, reference compound]", "values": [{"measurement": "pEC50", "setting": "[4]; [12]", "value": 4.92}, {"measurement": "CTE Cell viability MTT assay", "setting": "[5]", "value": ">30.0", "unit": "µM"}]}
{"smiles": "N[C@@H](Cc1ccccc1)C(=O)N1C/C(=C\\c2ccc(Cl)c(Cl)c2)C(=O)/C(=C/c2ccc(Cl)c(Cl)c2)C1", "note": "[RA-190, reference compound]", "values": [{"measurement": "pIC50", "setting": "[1]; [9]", "value": "< 4.00"}, {"measurement": "pIC50", "setting": "[2]; [10]", "value": "< 4.00"}, {"measurement": "pIC50", "setting": "[3]; [11]", "value": "< 4.00"}, {"measurement": "pEC50", "setting": "[4]; [13]", "value": 5.52}]}
{"smiles": "CC(C)(C)[C@H](NC(=O)C(F)(F)F)C(=O)N1C[C@H]2[C@@H]([C@H]1C(=O)N[C@H](C#N)C[C@@H]1CCNC1=O)C2(C)C", "note": "[nirmatrelvir]", "values": [{"measurement": "protection against severe COVID-19 and hospitalisation", "setting": "[8]", "value": "approximately 90%"}]}
